# Measured values reported in ChEMBL document CHEMBL5096176, “AAA ATPases as therapeutic targets: Structure, functions, and small-molecule inhibitors” (Eur J Med Chem, 2021).
# Tests used:
# Influenza A virus [1] = test: Antiviral activity against Amantadine -resistant Influenza A virus (A/Washington/29/2009 (H1N1)) infected in MDCK cells overexpressing ST6Gal I assessed as inhibition of viral replication by plaque assay; format: functional, organism-based
# Influenza A virus [2] = test: Antiviral activity against Oseltamivir-resistant Influenza A virus (A/North Carolina/39/2009 (H1N1)) infected in MDCK cells over expressing ST6Gal I assessed as inhibition of viral replication by plaque assay; format: functional, organism-based
# Influenza A virus [3] = test: Antiviral activity against Amantadine-resistant Influenza A virus (A/WSN/1933 (H1N1)) infected in MDCK cells over expressing ST6Gal I assessed as inhibition of viral replication by plaque assay; format: functional, organism-based
# [4] = Selectivity index, ratio of CC50 for MDCK cells to EC50 for Amantadine-resistant Influenza A virus (A/Washington/29/2009 (H1N1)) infected in MDCK cells; format: toxicity, cell-based; details: dog, read-out: Ratio CC50/EC50
# [5] = Selectivity index, ratio of CC50 for MDCK cells to EC50 for Amantadine-resistant Influenza A virus (A/WSN/1933 (H1N1)) infected in MDCK cells; format: toxicity, cell-based; details: dog, read-out: Ratio CC50/EC50
compound,measurement,setting,value
Cc1cc(OCc2nnc(SC3CCCC3)n2-c2cccnc2)ccc1-c1ccc(S(C)(=O)=O)cc1,EC50,Influenza A virus [1],30 nM
same,EC50,Influenza A virus [2],30 nM
same,EC50,Influenza A virus [3],30 nM
same,selectivity ratio,[4],50
same,selectivity ratio,[5],50
